Measurements as given in patent US7820148B2, “Use of a complex nutritional base in cosmetics, in particular for the hair” (priority 2004, dated 2010).
“And” between values parts separate entries of the source, which are not always exact repeats. Equal values may be shown once.

Tested on: scalp fragments
Assay: Example 4: cell proliferation (anti-Ki67 immunohistochemistry) in root and outer epithelial sheath of scalp fragments kept in survival
Format: cell-based, human
Conditions: N = 6, 48 hours
Experimental: The aim of the present study is to identify the effectiveness of a CNB according to the invention and according to Table 2, on the stimulation of the root. The cell proliferation, using the anti-Ki67 antibody, was evaluated in the matrix zone of the root (growth zone of the stem), but also in the outer epithelial sheath of the follicle.
Scalp fragments from 6 different donors (cervico-facial lift of a non-alopecia subject) were deposited in inserts, themselves positioned on culture wells.
Containing no preservative, antibiotics were added to all these tested media (fungizone, gentamycin). They were added daily to the bottom of the wells, a passage taking place by slow diffusion between the two compartments via a porous membrane (12 μm).
The scalp fragments were kept in survival in a stove at 37° C. and in an air/5% CO2 atmosphere for 48 hours.
The scalp fragments were fixed in Bouin's liquid and set in paraffin.
The immunohistochemical evaluation of proliferation was carried out in the root and in the outer epithelial sheath surrounding the hair. This outer sheath is histologically considered as the prolongation of the surface epidermis.
Epithelial proliferation was analyzed by immunohistochemistry using an anti-Ki67 antibody (for labelling cells M, S, G1 and G2 of the cell cycle). Immunodetection was carried out using an indirect immunoperoxidase technique in 3 layers, amplified by (DAKO kit) and developed in AEC.
The number of labelled cells of the outer epithelial sheath was counted between the origin of the sebaceous glands and the beginning of the root zone. Furthermore, the labelled matrix cells in the roots were also counted. The percentage of cells undergoing proliferation was thereby calculated compared to the unlabelled cells.
Statistical analysis was carried out by the Student's test of the reduced deviation or paired samples test. The significant threshold was set at 5%.

For `Nc1cc(N2CCCCC2)nc(N)[n+]1[O-]` [Minoxidil], the “% of labelled cells (anti-Ki67) in the outer epithelial sheath of the follicles” value (Minoxidil 0.01% in PBS) was 10.2% and 10.2 ± 5%, the “% of labelled matrix cells (anti-Ki67) in the root of the hair follicle” value (Minoxidil 0.01% in PBS) was 4.2% and 4.2 ± 2.45% and the “% of labelled cells (anti-Ki67) in the outer epithelial sheath of the follicles” value (Minoxidil 2% in PBS) was 17.6% and 17.6 ± 7 %. For the same compound, the “% of labelled matrix cells (anti-Ki67) in the root of the hair follicle” value (Minoxidil 2% in PBS) was 11.60% and 11.6 ± 8.7%.
